# Conditions: 3 wt. % in base oil CnF2n+1(CF2CF2CF2O)mCnF2n+1 (viscosity at 40° C.: 210 mm^2/s), stirred under heating, stored at 25° C. for 24 hours
# Method: The phosphonic acid ester (3 wt. %) obtained in Example 1 or 7 was added to a base oil of the formula: CnF2n+1(CF2CF2CF2O)mCnF2n+1 (viscosity at 40° C.: 210 mm^2/s), and the mixture was sufficiently stirred under heating. After the mixture was stored at 25° C. for 24 hours, the solubility of the phosphonic acid ester in the base oil was visually observed.
compound,measurement,value
"CCOP(=O)(CCC(F)(F)C(F)(F)C(F)(F)C(F)(F)C(F)(F)CC(F)(F)C(F)(F)C(F)(F)C(F)(F)F)OCC [Example 1, CF3(CF2)3(CH2CF2)(CF2CF2)2(CH2CH2)P(O)(OCH2CH3)2]",solubility of the phosphonic acid ester in the base oil (visually observed),dissolved into an almost transparent solution
